From US7601883B2, “Mammalian sour/acid taste and CSF receptor genes, polypeptides and assays” (The Regents of the University of California, priority 2005, dated 2009)

Key:
PKD2L1-expressing TRCs = assay: Tastant-induced chorda tympani nerve recordings, mice with DTA ablation of PKD2L1-expressing cells; format: in vivo, mouse; details: PKD2L1-DTA mice (PKD2L1-expressing cells genetically ablated); range of 5 orders magnitude of proton concentrations
Description: (§1) To validate this approach as a means of uncovering TRC function, we first generated mice where T1R2-regulatory sequences were used to target DTA expression^25. T1R2 is an essential subunit of the sweet receptor heterodimer (T1R2+3), and the selective ablation of these cells should generate animals with a specific loss of sweet taste^6,9,10,17. To investigate the taste responses of the genetically modified mice, we recorded tastant-induced action potentials from nerves innervating taste receptor cells of the tongue; this physiological assay monitors the activity of the taste system at the periphery, and provides an accurate and reliable measure of taste receptor cell function. […] Next, we engineered animals where the PKD2L1 gene was used to target Cre recombinase into PKD2L1-expressing cells; appropriate expression was confirmed by performing double labeling with Cre and probes specific to PKD2L1-cells, or by crossing them to GFP reporter lines^26. Mice expressing Cre in PKD2L1 cells were crossed to conditional DTA lines, and double-positive progeny were scrutinized both for the specificity and efficiency of killing, as well as the integrity of taste buds.
(§2) Lingual stimulation and recording procedures were performed as previously described^7,9. Neural signals were amplified (10,000×) with a Grass P511 AC amplifier (Astro-Med), digitized with a Digidata 1200B A/D converter (Axon Instruments), and integrated (r.m.s. voltage) with a time constant of 0.5 s. Taste stimuli were presented at a constant flow rate of 4 ml min^−1 for 20 s intervals interspersed by 2 min rinses with artificial saliva^7,9 between presentations. All data analyses used the integrated response over a 25 s period immediately after the application of the stimulus. The mean response to 60 mM AceK was used to normalize responses to each experimental series. Tastants used for nerve recordings were: 10 mM, 60 mM acesulfameK (AceK); 10 mM, 60 mM sodium saccharin (saccharin); 300 mM sucrose; 30 mM mono potassium glutamate+1 mM inosine mono phosphate (Glu); 30 mM L alanine+1 mM inosine mono phosphate (Ala); 10 mM quinine hydrochloride (Qui); 100 μM cycloheximide (Cyx); 10 mM 6-n-propyl 2-thiouracil (PROP); 50 mM, 100 mM sodium chloride (NaCl); 10 mM, 50 mM citric acid; 10 mM, 50 mM tartaric acid; 50 mM, 500 mM acetic acid; pH 2 hydrochloric acid (HCl); 10 mM citric acid pH 2, 4 and 6.

[1] = tested on: taste receptor cells of the tongue; assay: Tastant-induced chorda tympani nerve recordings, wild-type mice; format: in vivo, mouse; details: wild-type mice (WT); lingual stimulation; normalized to the response to 60 mM AceK
Description: as §1, §2
Shown are integrated chorda tympani responses normalized to the response to 60 mM AceK; see herein for details on the ablated lines and concentrations of tastants. […] Wild type, black bars; PKD2L1-DTA, outline bars. The values are means±s.e.m. (n=5) of normalized chorda tympani responses. (c) Quantitation of acid responses of wild type (gray bars) and PKD2L1-DTA animals (outline bars). The values are means±s.e.m. (n=6).

SMILES | nerve responses to acid tastants (PKD2L1-expressing TRCs) | neural responses to tastant (integrated chorda tympani responses) [1]
O=C(O)CC(O)(CC(=O)O)C(=O)O [citric acid] | completely abolished | robust neural responses
N[C@@H](CCC(=O)O)C(=O)[O-].[K+] [glutamate, mono potassium glutamate] |  | robust neural responses
Cl [hydrochloric acid] | completely abolished | robust neural responses
[Cl-].[Na+] [NaCl, sodium chloride] |  | robust neural responses
C=C[C@H]1CN2CC[C@H]1C[C@H]2[C@H](O)c1ccnc2ccc(OC)cc12.Cl [quinine, quinine hydrochloride] |  | robust neural responses
CC1=CC(=O)NS(=O)(=O)O1 [acesulfameK] |  | robust neural responses
O=C1NS(=O)(=O)c2ccccc21.[Na] [saccharin, sodium saccharin] |  | robust neural responses
CC(=O)O [acetic acid] | completely abolished | robust neural responses
O=C(O)C(O)C(O)C(=O)O (stereo not drawn) [tartaric acid] | completely abolished | 
